Read-outs that look alike come from different tables or passages of the source.
What was measured:
[1] = tested on: MV4:11 human cancer cell lines; test: Anti-proliferative activity, CellTiter-Glo viability assay, 7 day protocol; format: cell-based; settings: Homo sapiens, MV4-11, 168 h, MV4:11 cells, 7 day incubation, read-out: GI50 on cellular proliferation of MV4:11 human cancer cell lines
Protocol: Viability assays are performed by dispensing […] into each well of an opaque 384-well plate and adding compounds at the indicated concentrations in a final volume of 32 μL and a final concentration of DMSO of 0.1% for all samples. After a set incubation period, 7 day protocol, the viability of cells in each well is assessed using the CellTiter-Glo assay (Promega), read on a GloMax 96 Microplane Luminometer (Promega). Serial dilutions of each cell type are included in all assays to generate standard curves and determine assay measurements are taken within the dynamic range of the instrument. GI50 values are calculated based on three biological replicates, each with three technical replicates. Data are expressed as mean plus/minus S.E.M.

WDR5 = WDR5 (Homo sapiens (Human), UniProt P61964); test: TR-FRET binding assay (displacement of 10mer-Thr-FAM probe from WDR5)
[2] = read-out: Ki for Inhibition of WDR5 by TR-FRET assay, TR-FRET, 10mer-Thr-FAM probe, WDR5-His tag 2 nM, pH 7.0
[3] = read-out: Ki for Inhibition of WDR5 by TR-FRET assay

| GI50 [1] [nM] | Ki (WDR5) [nM] | SMILES | Ki (WDR5; [2]) [nM] | Ki (WDR5; [3]) [nM] |
| --- | --- | --- | --- | --- |
| 160 | < 0.1 | Cc1cc([C@H](C)NC(=O)c2cc(Cn3ccn(C)c3=N)cc(-c3ccc(F)cc3C(F)(F)F)c2F)ccc1F [Example 172, (S)-2,4′-Difluoro-N-(1-(4-fluoro-3-methylphenyl)ethyl)-5-((2-imino-3-methyl-2,3-dihydro-1H-imidazol-1-yl)methyl)-2′-(trifluoromethyl)-[1,1′-biphenyl]-3-carboxamide] |  |  |
| < 100 | < 0.1 | CCn1cc(-c2cc(CN3CCN(C)C3=N)cc(C(=O)N[C@H](c3ccc(F)c(Cl)c3)C3CC3)c2)c(C(F)(F)F)n1 [Example 214, (S)—N-((3-Chloro-4-fluorophenyl)(cyclopropyl)methyl)-3-(1-ethyl-3-(trifluoromethyl)-1H pyrazol-4-yl)-5-((2-imino-3-methylimidazolidin-1-yl)methyl)benzamide] |  |  |
| 950 |  | Cc1nc(F)ccc1-c1cc(CN2CCCC2=N)cc(C(=O)NCc2ccc(Cl)c(Cl)c2)c1 [Example 331, N-(3,4-Dichlorobenzyl)-3-(6-fluoro-2-methylpyridin-3-yl)-5-((2-iminopyrrolidin-1-yl)methyl)benzamide] |  |  |
| 2400 |  | Cc1cc(CNC(=O)c2cc(Cn3ccn(C)c3=N)cc(-c3ncc(F)cc3C)c2)ccc1Cl [Example 70, N-(4-Chloro-3-methylbenzyl)-3-(5-fluoro-3-methylpyridin-2-yl)-5-((2-imino-3-methyl-2,3-dihydro-1H-imidazol-1-yl)methyl)benzamide] |  |  |
| 710 |  | CCn1cc(-c2cc(Cn3ccoc3=N)cc(C(=O)NCc3ccc(=O)n(C)c3)c2)c(C(F)(F)F)n1 [Example 292, 3-(1-Ethyl-3-(trifluoromethyl)-1H-pyrazol-4-yl)-5-((2-iminooxazol-3(2H)-yl)methyl)-N-((1-methyl-6-oxo-1,6-dihydropyridin-3-yl)methyl)benzamide] |  |  |
| 1800 |  | Cc1cc([C@H](NC(=O)c2cc(Cn3ccn(C)c3=N)cc(-c3ccc(F)cc3C)c2)C(F)(F)F)ccc1F [Example 45, (S)-4′-fluoro-5-((2-imino-3-methyl-2,3-dihydro-1H-imidazol-1-yl)methyl)-2′-methyl-N-(2,2,2-trifluoro-1-(4-fluor-3-methylphenyl)ethyl)-[1,1′-biphenyl]-3-carboxamide] |  |  |
| 120 |  | Cc1cc([C@@H](NC(=O)c2cc(Cn3ccoc3=N)cc(-c3ccc(F)cc3OC(F)F)c2)C2CC2)ccc1F [Example 242, (S)—N-(Cyclopropyl(4-fluoro-3-methylphenyl)methyl)-2′-(difluoromethoxy)-4′-fluoro-5-((2-iminooxazol-3(2 h)-yl)methyl)-[1,1′-biphenyl]-3-carboxamide] |  |  |
| 250 |  | COc1ccnc([C@@H](NC(=O)c2cc(Cn3ccn(C)c3=N)cc(-c3ccc(F)cc3C)c2)C2CC2)c1 [Example 97] |  |  |
| 790 |  | Cn1nccc1-c1cc(Cn2ccn(C)c2=N)cc(C(=O)NCc2ccc(Cl)c(Cl)c2)c1 [Example 26, N-(3,4-Dichlorobenzyl)-3-((2-imino-3-methyl-2,3-dihydro-1H-imidazol-1-yl)methyl)-5-(1-methyl-1H-pyrazol-5-yl)benzamide] |  |  |
| < 100 |  | CCn1cc(-c2cc(CN3CCOC3=N)cc(C(=O)N[C@H](c3ccc(F)c(C)c3)C3CC3)c2)c(C(F)(F)F)n1 [Example 276, (S)—N-(Cyclopropyl(4-fluoro-3-methylphenyl)methyl)-3-(1-ethyl-3-(trifluoromethyl) H-pyrazol-4-yl)-5-((2-iminooxazolidin-3-yl)methyl)benzamide] |  |  |
| 300 |  | COc1cc(CNC(=O)c2cc(Cn3ccoc3=N)cc(-c3cccnc3C(F)(F)F)c2)cc(OC)c1 [Example 244, N-(3,5-Dimethoxybenzyl)-3-((2-iminooxazol-3(2H)-yl)methyl)-5-(2-(trifluoromethyl)pyridin-3-yl)benzamide] |  |  |
| 6200 |  | COc1cnccc1-c1cc(Cn2ccn(C)c2=N)cc(C(=O)NCc2ccc(Cl)c(Cl)c2)c1 [Example 23, N-(3,4-Dichlorobenzyl)-3-((2-imino-3-methyl-2,3-dihydro-1H-imidazol-1-yl)methyl)-5-(3-methoxypyridin-4-yl)benzamide] |  |  |
| 320 |  | Cc1cc([C@@H](NC(=O)c2cc(Cn3ccn(C)c3=N)cc(OCC3CC3)c2)C2CC2)ccc1F [Example 175] |  |  |

More lines, now with the values behind:

| SMILES | GI50 [1] [nM] | Ki (WDR5) [nM] | Ki (WDR5; [2]) [nM] | Ki (WDR5; [3]) [nM] |
| --- | --- | --- | --- | --- |
| CCn1cc(-c2cc(Cn3ccn(C4CC4)c3=N)cc(C(=O)N[C@H](c3ccc(F)c(F)c3)C3CC3)c2)c(C(F)(F)F)n1 [Example 190, (S)—N-(Cyclopropyl(3,4-difluorophenyl)methyl)-3-((3-cyclopropyl-2-imino-2,3-dihydro-1H-imidazol-1-yl)methyl)-5-(1-ethyl-3-(trifluoromethyl)-1H-pyrazol-4-yl)benzamide] | 190 |  | 0.11 |  |
| Cc1cc([C@@H](NC(=O)c2cc(CN3CCCC3=N)cc(-c3cn(C)nc3C(F)(F)F)c2)C2CC2)ccc1F [Example 337, (S)—N-(Cyclopropyl(4-fluoro-3-methylphenyl)methyl)-3-((2-iminopyrrolidin-1-yl)methyl)-5-(1-methyl-3-(trifluoromethyl)-1H-pyrazol-4-yl)benzamide] | < 100 |  | < 0.1 |  |
| Cc1cc([C@@H](NC(=O)c2cc(Cn3ccn(C4CC4)c3=N)cc(-c3ccc(F)cc3OC(F)F)c2)C2CC2)ccc1F [Example 156, (S)—N-(cyclopropyl(4-fluoro-3-methylphenyl)methyl)-5-((3-cyclopropyl-2-imino-2,3-dihydro-1H-imidazol-1-yl)methyl)-2′-(difluoromethoxy)-4′-fluoro-[1,1′-biphenyl]-3-carboxamide] | 470 |  | < 0.1 |  |
| Cc1cc([C@@H](NC(=O)c2cc(CN3CCCC3=N)cc(-c3cccnc3C(F)(F)F)c2)C2CC2)ccc1F [Example 334, (S)—N-(Cyclopropyl(4-fluoro-3-methylphenyl)methyl)-3-((2-iminopyrrolidin-1-yl)methyl)-5-(2-(trifluoromethyl)pyridin-3-yl)benzamide] | < 100 |  | < 0.1 |  |
| Cc1cc([C@@H](NC(=O)c2cc(Cn3ccn(C)c3=N)cc(-c3ccc(F)cc3Cl)c2)C2CC2)ncc1F [Example 174, (S)-2′-Chloro-N-(cyclopropyl(5-fluoro-4-methylpyridin-2-yl)methyl)-4′-fluoro-5-((2-imino-3-methyl-2,3-dihydro-1H-imidazol-1-yl)methyl)-[1,1′-biphenyl]-3-carboxamide] | < 100 |  | < 0.1 |  |
| CCn1cc(-c2cc(Cn3ccn(C4CC4)c3=N)cc(C(=O)NCc3ccc(=O)n(C)c3)c2)c(C(F)(F)F)n1 [Example 199, 3-((3-Cyclopropyl-2-imino-2,3-dihydro-1H-imidazol-1-yl)methyl)-5-(1-ethyl-3-(trifluoromethyl)-1H-pyrazol-4-yl)-N-((1-methyl-6-oxo-1,6-dihydropyridin-3-yl)methyl)benzamide] | 940 |  | 0.3 |  |
| Cc1cc([C@@H](NC(=O)c2cc(CN3CCOC3=N)cc(-c3cc(C(F)(F)F)nn3C)c2)C2CC2)ccc1F [Example 287, (S)—N-(Cyclopropyl(4-fluoro-3-methylphenyl)methyl)-3-((2-iminooxazolidin-3-yl)methyl)-5-(1-methyl-3-(trifluoromethyl)-1H-pyrazol-5-yl)benzamide] | 100 |  |  | < 0.1 |
| Cc1cc([C@@H](NC(=O)c2cc(CN3CCOC3=N)cc(-c3cn(C)nc3C(F)(F)F)n2)C2CC2)ccc1F [Example 361, (S)—N-(Cyclopropyl(4-fluoro-3-methylphenyl)methyl)-4-((2-iminooxazolidin-3-yl)methyl)-6-(1-methyl-3-(trifluoromethyl)-1H-pyrazol-4-yl)picolinamide] | 940 |  | 0.77 |  |
| Cc1cc([C@@H](NC(=O)c2cc(Cn3ccoc3=N)cc(-c3cn(C)nc3C(F)(F)F)c2)C2CC2)ccc1F [Example 259, (S)—N-(Cyclopropyl(4-fluoro-3-methylphenyl)methyl)-3-((2-iminooxazol-3(2H)-yl)methyl)-5-(1-methyl-3-(trifluoromethyl)-1H-pyrazol-4-yl)benzamide] | < 100 |  |  | < 0.1 |
| Cc1cc([C@@H](NC(=O)c2cc(Cn3ccn(C4CC4)c3=N)cc(-c3cn(C)nc3C(F)(F)F)c2)C2CC2)ccc1F [Example 142, (S)—N-(Cyclopropyl(4-fluoro-3-methylphenyl)methyl)-3-((3-cyclopropyl-2-imino-2,3-dihydro-1H-imidazol-1-yl)methyl)-5-(1-methyl-3-(trifluoromethyl)-1H-pyrazol-4-yl)benzamide] | < 100 |  | < 0.1 |  |
| N=C1CCCN1Cc1cc(C(=O)N[C@H](c2ccc(F)c(Cl)c2)C2CC2)cc(-c2cccnc2C(F)(F)F)c1 [Example 340, (S)—N-((3-Chloro-4-fluorophenyl)(cyclopropyl)methyl)-3-((2-iminopyrrolidin-1-yl)methyl)-5-(2-(trifluoromethyl)pyridin-3-yl)benzamide] | < 100 |  | < 0.1 |  |
| Cc1cc([C@@H](NC(=O)c2cc(Cn3ccn(C)c3=N)cc(-c3cc(C(F)(F)F)nn3C)c2)C2CC2)ccc1F [Example 196, (S)—N-(Cyclopropyl(4-fluoro-3-methylphenyl)methyl)-3-((2-imino-3-methyl-2,3-dihydro-1H-imidazol-1-yl)methyl)-5-(1-methyl-3-(trifluoromethyl)-1H-pyrazol-5-yl)benzamide] | < 100 |  | < 0.1 |  |
